Test results published in US12472208B2 (priority 2013, dated 2025).

Tests used:
[1] = system: DNA; conditions: cited from earlier work
[2] = system: cold, flu, or other respiratory illness; conditions: in vivo
[3] = system: illness spreading through the player population; conditions: over 300 players, 2014 training period, about 4 hours per day, PHPG about 0.3 ppm; historically two to five players miss three to four days per week
[4] = system: bronchitis, colds, or flu; conditions: in vivo
[5] = system: subject

SMILES | mutagenicity / safety [1] | subjects contracting cold, flu, or other respiratory illness [2] | players missing training days due to illness during spring training [3] | occurrence of bronchitis, colds, or flu [4] | adverse effects of exposure ([5]; continuous exposure) | toxicity ([5]; levels up to 7 ppm)
N#CSO [OSCN−, hypothiocyanate] | non-mutagenic |  |  |  |  | 
OO [PHPG, hydrogen peroxide] |  | none of the subjects contracted cold, flu, or other respiratory illness | only one player missed one training day due to illness | did not suffer bronchitis, colds, or flu | no adverse effects | non-toxic
